What was measured:
[1] = test system: ACHN; assay: Cytotoxicity against human ACHN cells assessed as cell viability at 10 uM after 72 hrs by sulforhodamine B assay relative to control; assay type: functional; conditions: read-out: Activity
[2] = Cytotoxicity against human HCT15 cells assessed as cell viability at 10 uM after 72 hrs by sulforhodamine B assay relative to control; assay type: functional; conditions: HCT-15, 72 h, read-out: Activity
[3] = test system: MDA-MB-231; assay: Cytotoxicity against human MDA-MB-231 cells assessed as cell viability at 10 uM after 72 hrs by sulforhodamine B assay relative to control; assay type: functional; conditions: MDA-MB-231, 72 h, read-out: Activity
[4] = test system: NCI-H23; assay: Cytotoxicity against human NCI-H23 cells assessed as cell viability at 10 uM after 72 hrs by sulforhodamine B assay relative to control; assay type: functional; conditions: NCI-H23, 72 h, read-out: Activity
[5] = Cytotoxicity against human NUGC3 cells assessed as cell viability at 10 uM after 72 hrs by sulforhodamine B assay relative to control; assay type: functional; conditions: NUGC-3, 72 h, read-out: Activity
[6] = Cytotoxicity against human PC3 cells assessed as cell viability at 10 uM after 72 hrs by sulforhodamine B assay relative to control; assay type: functional; conditions: PC-3, 72 h, read-out: Activity
[7] = test system: ACHN; assay: Cytotoxicity against human ACHN cells assessed as growth inhibition after 72 hrs by sulforhodamine B assay; assay type: functional
[8] = Cytotoxicity against human HCT15 cells assessed as growth inhibition after 72 hrs by sulforhodamine B assay; assay type: functional; conditions: HCT-15, 72 h
[9] = test system: MDA-MB-231; assay: Cytotoxicity against human MDA-MB-231 cells assessed as growth inhibition after 72 hrs by sulforhodamine B assay; assay type: functional; conditions: MDA-MB-231, 72 h
[10] = test system: NCI-H23; assay: Cytotoxicity against human NCI-H23 cells assessed as growth inhibition after 72 hrs by sulforhodamine B assay; assay type: functional; conditions: NCI-H23, 72 h
[11] = Cytotoxicity against human NUGC3 cells assessed as growth inhibition after 72 hrs by sulforhodamine B assay; assay type: functional; conditions: NUGC-3, 72 h
[12] = Cytotoxicity against human PC3 cells assessed as growth inhibition after 72 hrs by sulforhodamine B assay; assay type: functional; conditions: PC-3, 72 h
[13] = biological target: Nuclear factor NF-kappa-B complex (Homo sapiens) (UniProt Q00653+P19838+Q04206); assay: Inhibition of NF-kappaB (unknown origin) transcriptional activity in LPS-induced mouse RAW264.7 cells at 30 uM after 1 hr by secreted alkaline phosphatase assay relative to control; assay type: cell-based
[14] = biological target: Nuclear factor NF-kappa-B complex (Homo sapiens, UniProt P19838+Q00653+Q04206); assay: Inhibition of NF-kappaB (unknown origin) transcriptional activity in LPS-induced mouse RAW264.7 cells after 1 hr by secreted alkaline phosphatase assay; assay type: cell-based
Nuclear factor NF-kappa-B complex, sequence (P19838 1-433 limits assumed): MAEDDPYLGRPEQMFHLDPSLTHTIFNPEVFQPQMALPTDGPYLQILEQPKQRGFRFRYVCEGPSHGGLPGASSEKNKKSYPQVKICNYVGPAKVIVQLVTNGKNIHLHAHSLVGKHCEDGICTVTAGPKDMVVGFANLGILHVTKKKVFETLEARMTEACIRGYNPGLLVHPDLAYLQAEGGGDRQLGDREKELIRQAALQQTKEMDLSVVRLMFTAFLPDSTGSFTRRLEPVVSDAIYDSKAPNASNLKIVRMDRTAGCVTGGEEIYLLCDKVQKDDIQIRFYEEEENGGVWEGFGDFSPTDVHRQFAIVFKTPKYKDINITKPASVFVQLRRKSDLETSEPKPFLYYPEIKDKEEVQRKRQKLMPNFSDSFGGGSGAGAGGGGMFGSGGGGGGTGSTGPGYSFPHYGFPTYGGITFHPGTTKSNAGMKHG
Nuclear factor NF-kappa-B complex, sequence (Q00653 1-454 limits assumed): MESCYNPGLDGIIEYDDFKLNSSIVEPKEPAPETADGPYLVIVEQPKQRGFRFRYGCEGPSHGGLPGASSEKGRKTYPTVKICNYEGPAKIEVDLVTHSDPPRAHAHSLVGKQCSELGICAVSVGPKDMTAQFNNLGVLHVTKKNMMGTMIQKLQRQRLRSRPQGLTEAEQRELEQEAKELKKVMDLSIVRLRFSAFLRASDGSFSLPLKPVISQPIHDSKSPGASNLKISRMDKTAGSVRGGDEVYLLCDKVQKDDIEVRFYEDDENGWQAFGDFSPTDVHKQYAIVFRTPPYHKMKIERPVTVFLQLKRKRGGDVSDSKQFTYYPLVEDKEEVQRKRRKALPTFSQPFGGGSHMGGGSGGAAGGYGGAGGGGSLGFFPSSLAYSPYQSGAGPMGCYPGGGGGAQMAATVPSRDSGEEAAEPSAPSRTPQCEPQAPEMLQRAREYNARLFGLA
Nuclear factor NF-kappa-B complex, sequence (Q04206 whole entry): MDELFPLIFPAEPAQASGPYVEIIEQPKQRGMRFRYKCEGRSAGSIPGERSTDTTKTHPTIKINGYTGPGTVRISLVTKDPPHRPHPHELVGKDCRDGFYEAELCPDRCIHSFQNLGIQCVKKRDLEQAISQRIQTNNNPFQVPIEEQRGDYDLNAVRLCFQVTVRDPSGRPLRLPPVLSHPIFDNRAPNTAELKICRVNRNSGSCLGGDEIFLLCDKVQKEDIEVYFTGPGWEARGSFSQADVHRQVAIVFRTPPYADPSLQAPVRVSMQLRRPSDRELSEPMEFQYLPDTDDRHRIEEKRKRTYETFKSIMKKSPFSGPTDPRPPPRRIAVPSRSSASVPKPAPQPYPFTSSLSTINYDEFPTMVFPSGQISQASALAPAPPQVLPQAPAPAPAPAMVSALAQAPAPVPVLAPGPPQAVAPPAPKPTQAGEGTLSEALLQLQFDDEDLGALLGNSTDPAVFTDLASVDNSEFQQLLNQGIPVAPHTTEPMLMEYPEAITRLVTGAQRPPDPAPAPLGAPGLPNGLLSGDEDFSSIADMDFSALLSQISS

Nuclear factor NF-kappa-B complex (Homo sapiens), sequence (P19838 whole entry, looked up): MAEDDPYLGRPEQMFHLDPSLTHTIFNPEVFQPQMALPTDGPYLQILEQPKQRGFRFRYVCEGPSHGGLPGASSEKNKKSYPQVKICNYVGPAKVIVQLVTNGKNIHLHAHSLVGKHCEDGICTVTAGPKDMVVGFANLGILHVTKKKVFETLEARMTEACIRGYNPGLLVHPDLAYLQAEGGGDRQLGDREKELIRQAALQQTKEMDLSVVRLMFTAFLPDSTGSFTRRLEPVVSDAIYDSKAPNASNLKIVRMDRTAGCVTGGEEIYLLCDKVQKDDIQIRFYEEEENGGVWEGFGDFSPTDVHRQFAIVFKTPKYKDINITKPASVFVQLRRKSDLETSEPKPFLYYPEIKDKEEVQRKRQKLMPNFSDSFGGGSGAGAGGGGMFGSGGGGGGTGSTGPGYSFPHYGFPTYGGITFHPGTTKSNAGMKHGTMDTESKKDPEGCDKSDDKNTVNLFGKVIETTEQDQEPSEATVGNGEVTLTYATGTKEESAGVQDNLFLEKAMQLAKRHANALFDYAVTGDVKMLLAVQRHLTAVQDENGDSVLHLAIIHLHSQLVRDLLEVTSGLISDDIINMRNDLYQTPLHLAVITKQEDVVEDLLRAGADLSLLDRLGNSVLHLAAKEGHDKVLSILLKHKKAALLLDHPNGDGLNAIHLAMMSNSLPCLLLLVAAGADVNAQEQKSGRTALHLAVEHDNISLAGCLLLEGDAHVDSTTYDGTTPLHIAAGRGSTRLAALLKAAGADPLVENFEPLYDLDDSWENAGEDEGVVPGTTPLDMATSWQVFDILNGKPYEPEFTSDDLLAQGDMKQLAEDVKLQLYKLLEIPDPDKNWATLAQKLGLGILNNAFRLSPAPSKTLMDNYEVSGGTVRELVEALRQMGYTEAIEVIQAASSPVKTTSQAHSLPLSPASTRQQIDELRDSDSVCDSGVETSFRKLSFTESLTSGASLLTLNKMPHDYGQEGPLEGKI
Nuclear factor NF-kappa-B complex (Homo sapiens), sequence (Q00653 whole entry, looked up): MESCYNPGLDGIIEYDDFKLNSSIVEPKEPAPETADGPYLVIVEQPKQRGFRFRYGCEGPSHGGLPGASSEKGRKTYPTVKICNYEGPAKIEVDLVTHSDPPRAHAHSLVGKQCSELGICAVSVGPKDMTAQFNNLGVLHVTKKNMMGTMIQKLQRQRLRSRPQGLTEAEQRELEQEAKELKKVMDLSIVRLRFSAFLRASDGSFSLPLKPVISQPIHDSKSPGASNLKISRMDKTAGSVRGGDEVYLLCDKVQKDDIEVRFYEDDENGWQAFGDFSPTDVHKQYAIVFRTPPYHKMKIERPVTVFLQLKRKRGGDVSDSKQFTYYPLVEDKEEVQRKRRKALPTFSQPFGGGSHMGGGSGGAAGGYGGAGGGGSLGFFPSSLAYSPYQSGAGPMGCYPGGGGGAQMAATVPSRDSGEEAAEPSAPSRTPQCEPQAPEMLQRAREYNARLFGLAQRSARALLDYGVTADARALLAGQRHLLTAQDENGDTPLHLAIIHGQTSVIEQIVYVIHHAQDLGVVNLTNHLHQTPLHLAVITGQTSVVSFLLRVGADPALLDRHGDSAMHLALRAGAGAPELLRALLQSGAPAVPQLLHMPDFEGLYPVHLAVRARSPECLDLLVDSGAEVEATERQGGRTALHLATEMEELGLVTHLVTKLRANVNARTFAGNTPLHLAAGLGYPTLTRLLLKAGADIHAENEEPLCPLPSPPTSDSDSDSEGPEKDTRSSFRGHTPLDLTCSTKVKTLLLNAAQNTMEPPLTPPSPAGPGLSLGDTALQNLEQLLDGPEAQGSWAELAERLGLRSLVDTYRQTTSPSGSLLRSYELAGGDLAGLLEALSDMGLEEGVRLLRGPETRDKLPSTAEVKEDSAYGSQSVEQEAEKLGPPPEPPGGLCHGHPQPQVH
Nuclear factor NF-kappa-B complex (Homo sapiens), sequence (Q04206 whole entry, looked up): as the sequence (Q04206 whole entry) above

SMILES	inhibition [13] [%]	IC50 [14] [nM]	viability at 10 µM [1] [%]	viability at 10 µM [2] [%]	viability at 10 µM [3] [%]	viability at 10 µM [4] [%]	viability at 10 µM [5] [%]	viability at 10 µM [6] [%]	GI50 [7] [nM]	GI50 [8] [nM]	GI50 [9] [nM]	GI50 [10] [nM]	GI50 [11] [nM]	GI50 [12] [nM]
O=C(Nc1ccc(O)cc1)c1cc2ccccc2o1	62	–	10	18	-32	25	47	-31	2740	2370	2200	2480	5860	2680
COc1cc2c(cc1O)CCC(C(=O)Nc1ccccc1)O2 (stereo not drawn)	–	37200	109	105	81	86	99	90	–	–	–	–	–	–
COc1cccc2c1C(=O)c1c(O)c3c(c(O)c1C2=O)C[C@@](O)(C(=O)CO)C[C@@H]3O[C@H]1C[C@H](N)[C@H](O)[C@H](C)O1 [DOXORUBICIN]	–	–	–	–	–	–	–	–	200	450	560	400	190	910
S=C(S)N1CCCC1 [PYRROLIDINE DITHIOCARBAMATE]	–	34500	–	–	–	–	–	–	230	130	160	100	140	170
O=C(Nc1cc(C(F)(F)F)cc(C(F)(F)F)c1)c1cc2ccccc2o1	51.5	34000	95	98	98	101	98	110	–	–	–	–	–	–
COc1ccc(NC(=O)c2cc3ccccc3o2)cc1	39.5	–	109	87	110	101	102	111	–	–	–	–	–	–
O=C(Nc1ccccc1C(F)(F)F)c1cc2ccccc2o1	57.5	–	98	99	114	100	93	95	–	–	–	–	–	–
O=C(Nc1ccc([N+](=O)[O-])cc1)c1cc2ccccc2o1	34.5	–	94	84	111	101	95	87	–	–	–	–	–	–

More lines, main results first:

inhibition [13] [%]	IC50 [14] [nM]	SMILES	viability at 10 µM [1] [%]	viability at 10 µM [2] [%]	viability at 10 µM [3] [%]	viability at 10 µM [4] [%]	viability at 10 µM [5] [%]	viability at 10 µM [6] [%]	GI50 [7] [nM]	GI50 [8] [nM]	GI50 [9] [nM]	GI50 [10] [nM]	GI50 [11] [nM]	GI50 [12] [nM]
17	–	O=C(Nc1cccc(O)c1)C1Cc2ccccc2O1 (stereo not drawn)	125	97	63	60	110	4	–	–	–	–	–	3970
34	–	O=C(Nc1ccc([N+](=O)[O-])cc1)C1Cc2ccccc2O1 (stereo not drawn)	93	81	85	77	86	10	–	–	–	–	–	1860
75	–	O=C(Nc1cc(Cl)cc(Cl)c1)C1Cc2ccccc2O1 (stereo not drawn)	89	98	89	99	114	89	–	–	–	–	–	–
65	23000	O=C(Nc1ccc(Cl)c(Cl)c1)C1Cc2ccccc2O1 (stereo not drawn)	109	88	98	94	107	99	–	–	–	–	–	–

— ChEMBL document CHEMBL3425509, “Design, synthesis, and biological evaluation of benzofuran- and 2,3-dihydrobenzofuran-2-carboxylic acid N-(substituted)phenylamide derivatives as anticancer agents and inhibitors of NF-κB” (Bioorg Med Chem Lett, 2015)
